Values after ≈ are worked out from the molar mass of the structure shown. Active and inactive are the calls of the source. No cut-off for these calls is given here.
Key:
Staphylococcus aureus [1] = test: Antibacterial activity against Staphylococcus aureus S18713 assessed as growth inhibition; type: functional
Plasmodium gallinaceum [2] = test: Antimalarial activity against sporozoite-induced Plasmodium gallinaceum infected in chick assessed as change in cured at 7.5 mg/kg, sc single dose; type: functional; settings: route subcutaneous
Shigella sonnei = test: Antibacterial activity against Shigella sonnei C-10 assessed as growth inhibition; type: functional
Staphylococcus aureus [3] = test: Antibacterial activity against Staphylococcus aureus UC-76 assessed as growth inhibition; type: functional
Escherichia coli = test: Antibacterial activity against Escherichia coli Vogel assessed as growth inhibition; type: functional
Plasmodium berghei [4] = test: Antimalarial activity against trophozoite-induced Plasmodium berghei infected in mouse assessed as change in mean survival time at 2.5 mg/kg, sc single dose after 72 hrs of infection; type: functional; settings: route subcutaneous
Plasmodium gallinaceum [5] = test: Antimalarial activity against sporozoite-induced Plasmodium gallinaceum infected in chick assessed as change in cured at 60 mg/kg, sc single dose; type: functional; settings: route subcutaneous
Plasmodium berghei [6] = test: Antimalarial activity against trophozoite-induced Plasmodium berghei infected in sc dosed mouse assessed as minimum curative dose; type: functional
Enterococcus faecalis = test: Antibacterial activity against Streptococcus faecalis MGH-2 assessed as growth inhibition; type: functional
Plasmodium gallinaceum [7] = test: Antimalarial activity against sporozoite-induced Plasmodium gallinaceum infected in chick assessed as change in cured at 15 mg/kg, sc single dose; type: functional; settings: route subcutaneous
Plasmodium gallinaceum [8] = test: Antimalarial activity against sporozoite-induced Plasmodium gallinaceum infected in chick assessed as change in cured at 30 mg/kg, sc single dose; type: functional; settings: route subcutaneous
Plasmodium berghei [9] = test: Antimalarial activity against trophozoite-induced Plasmodium berghei infected in mouse assessed as change in mean survival time at 1.25 mg/kg, sc single dose after 72 hrs of infection; type: functional; settings: route subcutaneous
Plasmodium berghei [10] = test: Antimalarial activity against trophozoite-induced Plasmodium berghei infected in mouse assessed as change in mean survival time at 5 mg/kg, sc single dose after 72 hrs of infection; type: functional; settings: route subcutaneous
Pseudomonas aeruginosa = test: Antibacterial activity against Pseudomonas aeruginosa 28 assessed as growth inhibition; type: functional
Plasmodium berghei [11] = test: Antimalarial activity against trophozoite-induced Plasmodium berghei infected in mouse assessed as change in mean survival time at 10 mg/kg, sc single dose after 72 hrs of infection; type: functional; settings: route subcutaneous
Plasmodium berghei [12] = test: Antimalarial activity against trophozoite-induced Plasmodium berghei infected in mouse assessed as change in mean survival time at 320 mg/kg, sc single dose after 72 hrs of infection; type: functional; settings: route subcutaneous
Plasmodium berghei [13] = test: Antimalarial activity against trophozoite-induced Plasmodium berghei infected in mouse assessed as change in mean survival time at 40 mg/kg, sc single dose after 72 hrs of infection; type: functional; settings: route subcutaneous
Plasmodium berghei [14] = test: Antimalarial activity against trophozoite-induced Plasmodium berghei infected in mouse assessed as change in mean survival time at 20 mg/kg, sc single dose after 72 hrs of infection; type: functional; settings: route subcutaneous
[15] = system: Mycobacterium tuberculosis; test: Antibacterial activity against Mycobacterium tuberculosis H37Rv assessed as growth inhibition; type: functional
Plasmodium berghei [16] = test: Antimalarial activity against trophozoite-induced Plasmodium berghei infected in mouse assessed as change in mean survival time at 80 mg/kg, sc single dose after 72 hrs of infection; type: functional; settings: route subcutaneous
Plasmodium berghei [17] = test: Antimalarial activity against trophozoite-induced Plasmodium berghei infected in mouse assessed as change in mean survival time at 640 mg/kg, sc single dose after 72 hrs of infection; type: functional; settings: route subcutaneous
Plasmodium berghei [18] = test: Antimalarial activity against trophozoite-induced Plasmodium berghei infected in mouse assessed as change in mean survival time at 160 mg/kg, sc single dose after 72 hrs of infection; type: functional; settings: route subcutaneous
Plasmodium gallinaceum [19] = test: Antimalarial activity against trophozoite-induced Plasmodium gallinaceum infected in chick assessed as cured at 120 mg/kg, sc single dose; type: functional, organism-based; set-up: dose 120 mg/kg
Gallus gallus = test: Toxicity in trophozoite-induced Plasmodium gallinaceum infected in chick assessed as death at 120 mg/kg, sc single dose measured within 48 hrs; type: organism-based; set-up: dose 120 mg/kg, route subcutaneous; settings: chicken, in vivo
Plasmodium gallinaceum [20] = test: Antimalarial activity against trophozoite-induced Plasmodium gallinaceum infected in chick assessed as mean survival time at 120 mg/kg, sc single dose (reference value: 4 days); type: functional; settings: route subcutaneous
Plasmodium falciparum [21] = test: Antimalarial activity against chloroquine-resistant, pyrimethamine-sensitive Plasmodium falciparum Vietnam Oak Knoll in Aotus monkey assessed as dose required to >50% cures compound treated for 7 days; type: functional
Plasmodium vivax [22] = test: Antimalarial activity against Plasmodium vivax VietnamPalo Alto in po once daily dosed Owl monkey assessed as curative dose compound treated for 7 days; type: functional
Plasmodium falciparum [23] = test: Antimalarial activity against Plasmodium falciparum Malayan Camp CH/Q infected in po once daily dosed Owl monkey assessed as curative dose compound treated for 7 days; type: functional
Plasmodium falciparum [24] = test: Antimalarial activity against Plasmodium falciparum Vietnam Smith in po once daily dosed Owl monkey assessed as curative dose compound treated for 7 days; type: functional
Plasmodium falciparum [25] = test: Antimalarial activity against Plasmodium falciparum Vietnam Oak Knoll in po once daily dosed Owl monkey assessed as curative dose compound treated for 7 days; type: functional
Plasmodium falciparum [26] = test: Antimalarial activity against chloroquine-sensitive, pyrimethamine-resistant Plasmodium falciparum Malayan Camp CH/Q infected in Aotus monkey assessed as dose required to >50% cures compound treated for 7 days; type: functional
Plasmodium vivax [27] = test: Antimalarial activity against Plasmodium vivax New Guinea Chesson in po once daily dosed Owl monkey assessed as curative dose compound treated for 7 days; type: functional
Plasmodium gallinaceum [28] = test: Antimalarial activity against sporozoite-induced Plasmodium gallinaceum infected in chick assessed as change in cured at 120 mg/kg, sc single dose; type: functional; settings: route subcutaneous

Compound	MIC (Staphylococcus aureus [1]) [mg/L]	MST (Plasmodium gallinaceum [2]) [days]	MIC (Shigella sonnei) [mg/L]	MIC (Staphylococcus aureus [3]) [mg/L]	MIC (Escherichia coli) [mg/L]	MST (Plasmodium berghei [4]) [days]	MST (Plasmodium gallinaceum [5]) [days]	MCD (Plasmodium berghei [6]) [mg/kg]	MIC (Enterococcus faecalis) [mg/L]	MST (Plasmodium gallinaceum [7]) [days]	MST (Plasmodium gallinaceum [8]) [days]	MST (Plasmodium berghei [9]) [days]	MST (Plasmodium berghei [10]) [days]	MIC (Pseudomonas aeruginosa) [mg/L]	MST (Plasmodium berghei [11]) [days]	MST (Plasmodium berghei [13]) [days]	MST (Plasmodium berghei [14]) [days]	MIC [15] [mg/L]	MST (Plasmodium berghei [16]) [days]	MST (Plasmodium berghei [18]) [days]	also measured
Cc1c([S+]([O-])c2ccc3ccccc3c2)ccc2nc(N)nc(N)c12 (stereo unspecified)	> 25	3.7	> 25	> 25	> 25	10.7	3.7	20	< 0.25	3.7	3.7	9.7	22.9	> 25	–	–	–	–	–	–	–
Nc1nc(N)c2cc([S+]([O-])c3ccccc3-c3ccccc3)ccc2n1 (stereo unspecified)	5 (≈ 13.9 µM)	–	> 25	2.5 (≈ 6.94 µM)	> 25	–	3.7	640	< 0.25	0	0	–	–	> 25	0.3	0.3	0.3	25 (≈ 69.4 µM)	0.5	3.3	MST (Plasmodium berghei [12]): 5.7 days; MST (Plasmodium berghei [17]): 12.7 days
Nc1nc(N)c2cc([S+]([O-])c3c(F)c(F)cc(F)c3F)ccc2n1 (stereo unspecified)	1.5 (≈ 4.21 µM)	–	> 25	1 (≈ 2.81 µM)	> 25	–	–	80	< 0.25	–	–	–	–	> 25	0.5	10.7	0.9	25 (≈ 70.2 µM)	13.9	16.7	Activity (Plasmodium gallinaceum [19]): Active; Activity (Gallus gallus): Toxic; MST (Plasmodium gallinaceum [20]): 14.8 days
Nc1nc(N)c2cc([S+]([O-])c3ccccc3)ccc2n1 (stereo unspecified)	< 0.25	0	15 (≈ 52.8 µM)	< 0.25	1.5 (≈ 5.28 µM)	–	–	160	< 0.25	0	0	–	–	> 25	1.1	11.3	4.9	20 (≈ 70.3 µM)	15.9	–	–
Nc1nc(N)c2cc(S(=O)(=O)c3ccccc3-c3ccccc3)ccc2n1	> 25	–	> 25	> 25	> 25	–	–	640	0.25 (≈ 0.664 µM)	–	–	–	–	> 25	–	0.3	0.3	–	0.5	0.7	MST (Plasmodium berghei [12]): 0.7 days; MST (Plasmodium berghei [17]): 1.1 days
Nc1nc(N)c2cc(S(=O)(=O)c3cccc(-c4ccccc4)c3)ccc2n1	1.5 (≈ 3.98 µM)	2.4	> 25	1 (≈ 2.66 µM)	> 25	9.3	–	40	< 0.25	0	0	4.1	13.6	> 25	13.9	16.9	21.9	> 25	–	–	–
Nc1nc(N)c2cc([S+]([O-])c3cccc(C(F)(F)F)c3)ccc2n1 (stereo unspecified)	< 0.25	6.4	> 25	< 0.25	> 25	4.1	–	40	< 0.25	–	–	1.1	9.1	> 25	12.7	–	21.4	–	–	–	–
CCN(CC)CCCC(C)Nc1ccnc2cc(Cl)ccc12 (stereo unspecified) [CHLOROQUINE]	–	–	–	–	–	–	–	–	–	–	–	–	–	–	–	–	–	–	–	–	Activity (Plasmodium falciparum [21]): >20 mg/kg; CD90 (Plasmodium vivax [22]): 2.5 mg/kg; CD90 (Plasmodium falciparum [23]): 5 mg/kg; CD90 (Plasmodium falciparum [24]): >20 mg/kg; CD90 (Plasmodium falciparum [25]): 2 mg/kg; Activity (Plasmodium falciparum [26]): 5 mg/kg; CD90 (Plasmodium vivax [27]): 2.5 mg/kg
Nc1nc(N)c2cc(S(=O)(=O)c3ccc(Cl)c(Cl)c3)ccc2n1	1 (≈ 2.71 µM)	–	20 (≈ 54.2 µM)	0.5 (≈ 1.35 µM)	2.5 (≈ 6.77 µM)	3.5	–	10	< 0.25	–	–	1.1	5.9	> 25	10.3	–	11.2	20 (≈ 54.2 µM)	–	–	MST (Plasmodium gallinaceum [28]): 0 days
C=C[C@H]1CN2CC[C@H]1C[C@H]2[C@H](O)c1ccnc2ccc(OC)cc12.Cl [QUININE HYDROCHLORIDE]	–	–	–	–	–	–	–	–	–	–	–	–	–	–	–	–	–	–	–	–	Activity (Plasmodium falciparum [21]): 40 mg/kg; CD90 (Plasmodium vivax [22]): 40 mg/kg; CD90 (Plasmodium falciparum [23]): 20 mg/kg; CD90 (Plasmodium falciparum [24]): >80 mg/kg; CD90 (Plasmodium falciparum [25]): 80 mg/kg; Activity (Plasmodium falciparum [26]): 80 mg/kg; CD90 (Plasmodium vivax [27]): 40 mg/kg
COc1cccc(S(=O)(=O)c2ccc3nc(N)nc(N)c3c2)c1	2 (≈ 6.05 µM)	–	> 25	1 (≈ 3.03 µM)	2.5 (≈ 7.57 µM)	–	0	320	< 0.25	0	0	–	–	> 25	1.1	8.9	3.9	25 (≈ 75.7 µM)	12.5	13.2	Activity (Plasmodium gallinaceum [19]): Active; Activity (Gallus gallus): Toxic; MST (Plasmodium berghei [12]): 23.9 days; MST (Plasmodium gallinaceum [20]): 13.2 days
COc1ccc([S+]([O-])c2ccc3nc(N)nc(N)c3c2)cc1 (stereo unspecified)	–	–	–	–	–	–	–	20	–	–	–	–	–	–	0.7	10.5	2.7	–	13.2	25.9	Activity (Plasmodium gallinaceum [19]): Active; Activity (Gallus gallus): Toxic; MST (Plasmodium gallinaceum [20]): 24.2 days
Nc1nc(N)c2cc([S+]([O-])c3ccc(F)cc3)ccc2n1 (stereo unspecified)	–	–	–	–	–	–	0.7	20	–	1	0.7	–	–	–	5.5	11.5	8.9	–	16.9	–	–

Reference: ChEMBL document CHEMBL3244272, “Folate antagonists. 15. 2,3-Diamino-6-(2-naphthylsulfonyl)quinazoline and related 2,4-diamino-6-[(phenyl and naphthyl)sulfinyl and sulfonyl]quinazolines, a potent new class of antimetabolites with phenomenal antimalarial activity” (J Med Chem, 1979)
